Source: US20160213788A1, “ACTIVE TARGETING ANTITUMOR DRUG AND PREPARATION METHOD THEREFOR” (NINGBO INSTITUTE OF MATERIALS TECHNOLOGY & ENGINEERING, …, priority 2013, published 2016)

Experiments:
[1] = system: human breast cancer MCF-7 cells; test: MTT test (cell toxicity test); type: cell-based; conditions: for survival rate of cell (%): MCF-7, 4 h exposure then 44 h culture
Protocol: (§1) (1) MTT test (cell toxicity test)
(§2) 1. formulating a single cell suspension with a medium containing 10% fetal calf serum, and then seeding the suspension into 96-well plates in 1.0×10^5 cells per well. The volume of each well was 150 μL.
(§3) 2. placing the plates into a cell incubator of 37° C. and culturing for 24 h.
(§4) 3. absorbing and discarding the supernatant of the medium in the well, and adding […], fresh medium containing TXT or […], solution containing composition [D-Arg^25]-NPY-ANP-TXT with same concentration of TXT.
(§5) 4. placing into a cell incubator of 37° C. and culturing for 4 h, absorbing and discarding the supernatant of the medium in the well, and then replacing with fresh medium contain no medication or nanoparticle composition, and continuing to culture for 44 h.
(§6) 5. adding 10 μL MTT solution (5 mg/ml, in PBS, pH=7.4) into each well, placing the plates into a cell incubator of 37° C. and continuing to culture for 4 h, terminating the culture, and then absorbing and discarding the supernatant of the medium in the well.
(§7) 6. adding 150 μL DMSO into each well, oscillating for 10 min, so that the crystal was fully thawed.
(§8) 7. selecting 550 nm wavelength, and measuring the light absorbance for each well with enzyme-linked immunosorbent monitor and recording the results.
(§9) The cells used in cell experiments comprised human breast cancer MCF-7 cells, human endometrial tumors HEC-1B-Y5 cells (Purchased from American Type Culture Collection (ATCC) and Sciencell company(USA))

[2] = system: human endometrial tumors HEC-1B-Y5 cells; test: MTT test (cell toxicity test); type: cell-based; conditions: for survival rate of cell (%): HEC-1B-Y5, 4 h exposure then 44 h culture
Protocol: as §1, §2, §3, §4, §5, §6, §7, §8, §9

CC(=O)O[C@@]12CO[C@@H]1C[C@H](O)[C@@]1(C)C(=O)[C@H](O)C3=C(C)[C@@H](OC(=O)[C@H](O)[C@@H](NC(=O)OC(C)(C)C)c4ccccc4)C[C@@](O)([C@@H](OC(=O)c4ccccc4)[C@H]21)C3(C)C [TXT, docetaxel]
survival rate of cell (%) ([1]; CTXT 0.5 μg/mL): 90%
survival rate of cell (%) ([1]; CTXT 1.0 μg/mL): 80%
survival rate of cell (%) ([1]; CTXT 2.0 μg/mL): 50%
survival rate of cell (%) ([1]; CTXT 5.0 μg/mL): 20%
survival rate of cell (%) ([1]; CTXT 10.0 μg/mL): 20%
killing effect (in words) ([1]; MCF-7 cells): excellent killing effect
survival rate of cell (%) ([2]; CTXT 0.5 μg/mL): 91%
survival rate of cell (%) ([2]; CTXT 1.0 μg/mL): 79%
survival rate of cell (%) ([2]; CTXT 2.0 μg/mL): 55%
survival rate of cell (%) ([2]; CTXT 5.0 μg/mL): 40%
survival rate of cell (%) ([2]; CTXT 10.0 μg/mL): 30%
killing effect (in words) ([2]; HEC-1B-Y5 cells): excellent killing effect
